# Reference: article PMC10746543, “Design principles for cyclin K molecular glue degraders” (Nature Chemical Biology, 2023)
# Several values for one entry are separate records, joined by “and”; a condition that tells them apart may be missing. Equal entries are not always repeated. Where two headings read alike, the source gives them in different places.
# Columns and labels:
# CDK2–cyclin A = target: T1, CDK2–cyclin A (Homo sapiens, UniProt P24941); test: Lanthascreen kinase binding assay, CDK2; conditions: for Lanthascreen signal, sheet CDK2: raw replicates
# T1 construct: purchased Thermo Fisher
# Procedure: Lanthascreen experiments were performed using commercially available reagents (Thermo Fisher) and according to the manufacturer’s instructions.
# CDK12–cyclin K and DDB1 = target: T2, CDK12–cyclin K and DDB1 (Homo sapiens, UniProt Q16531+Q9NYV4, K965R); test: TR-FRET ternary complex formation assay (compound titration); assay type: binding
# T2 construct: His6–CDK12 (a.a. 713–1,052); full-length or beta-propeller B domain deletion (ΔBPB: a.a. 396–705 deleted) constructs of His6–DDB1ΔBPB, StrepII–Avi–DDB1, or His6–Spy–DDB1; made in house; host or cells: Trichoplusia ni High Five insect cells (baculovirus)
# In short: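 Delayed (70 μs) time-resolved read; FRET computed as 520 nm over 490 nm emission.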
# CDK12 = target: T3, CDK12 (Homo sapiens, UniProt Q16531+Q9NYV4); test: Label-free quantitative mass spectrometry in MDA-MB-231 cells, CDK12; assay type: cell-based
# T3 construct: endogenous in cells; host or cells: MDA-MB-231
# In short: (§1)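 MDA-MB-231 cells treated 5 h with 1 µM cyclin K degrader or DMSO. Lysates digested with LysC and trypsin, then analysed by label-free diaPASEF LC-MS on a TimsTOF Pro2 with directDIA search and MS1 precursor quantification. Protein abundances scaled and analysed with limma.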
# CDK13 = target: T4, CDK13 (Homo sapiens, UniProt Q14004+Q16531); test: Label-free quantitative mass spectrometry in MDA-MB-231 cells, CDK13; assay type: cell-based
# T4 construct: endogenous in cells; host or cells: MDA-MB-231
# In short: as §1
# [1] = label-free quantitative MS, replicate values
# [2] = normalised to DMSO = 1, replicate values
# T2 sequence (Q9NYV4 713-1052 K965R): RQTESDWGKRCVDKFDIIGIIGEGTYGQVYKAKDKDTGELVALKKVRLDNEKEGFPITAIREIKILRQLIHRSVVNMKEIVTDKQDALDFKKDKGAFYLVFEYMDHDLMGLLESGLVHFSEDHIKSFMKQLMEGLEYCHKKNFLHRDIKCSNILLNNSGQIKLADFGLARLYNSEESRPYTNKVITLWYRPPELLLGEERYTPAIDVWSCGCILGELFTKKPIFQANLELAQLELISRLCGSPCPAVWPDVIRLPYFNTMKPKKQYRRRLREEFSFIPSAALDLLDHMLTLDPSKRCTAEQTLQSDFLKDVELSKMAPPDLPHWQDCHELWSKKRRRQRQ
# T2 sequence (O75909 1-267 partner): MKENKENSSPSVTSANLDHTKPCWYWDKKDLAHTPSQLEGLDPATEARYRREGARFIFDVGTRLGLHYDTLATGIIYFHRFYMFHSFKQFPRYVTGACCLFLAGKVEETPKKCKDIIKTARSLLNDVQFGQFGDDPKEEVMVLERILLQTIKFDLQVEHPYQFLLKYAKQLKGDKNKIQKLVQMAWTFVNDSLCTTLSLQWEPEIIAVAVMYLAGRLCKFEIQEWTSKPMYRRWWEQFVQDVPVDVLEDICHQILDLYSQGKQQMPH
# T2 sequence (Q16531 whole entry): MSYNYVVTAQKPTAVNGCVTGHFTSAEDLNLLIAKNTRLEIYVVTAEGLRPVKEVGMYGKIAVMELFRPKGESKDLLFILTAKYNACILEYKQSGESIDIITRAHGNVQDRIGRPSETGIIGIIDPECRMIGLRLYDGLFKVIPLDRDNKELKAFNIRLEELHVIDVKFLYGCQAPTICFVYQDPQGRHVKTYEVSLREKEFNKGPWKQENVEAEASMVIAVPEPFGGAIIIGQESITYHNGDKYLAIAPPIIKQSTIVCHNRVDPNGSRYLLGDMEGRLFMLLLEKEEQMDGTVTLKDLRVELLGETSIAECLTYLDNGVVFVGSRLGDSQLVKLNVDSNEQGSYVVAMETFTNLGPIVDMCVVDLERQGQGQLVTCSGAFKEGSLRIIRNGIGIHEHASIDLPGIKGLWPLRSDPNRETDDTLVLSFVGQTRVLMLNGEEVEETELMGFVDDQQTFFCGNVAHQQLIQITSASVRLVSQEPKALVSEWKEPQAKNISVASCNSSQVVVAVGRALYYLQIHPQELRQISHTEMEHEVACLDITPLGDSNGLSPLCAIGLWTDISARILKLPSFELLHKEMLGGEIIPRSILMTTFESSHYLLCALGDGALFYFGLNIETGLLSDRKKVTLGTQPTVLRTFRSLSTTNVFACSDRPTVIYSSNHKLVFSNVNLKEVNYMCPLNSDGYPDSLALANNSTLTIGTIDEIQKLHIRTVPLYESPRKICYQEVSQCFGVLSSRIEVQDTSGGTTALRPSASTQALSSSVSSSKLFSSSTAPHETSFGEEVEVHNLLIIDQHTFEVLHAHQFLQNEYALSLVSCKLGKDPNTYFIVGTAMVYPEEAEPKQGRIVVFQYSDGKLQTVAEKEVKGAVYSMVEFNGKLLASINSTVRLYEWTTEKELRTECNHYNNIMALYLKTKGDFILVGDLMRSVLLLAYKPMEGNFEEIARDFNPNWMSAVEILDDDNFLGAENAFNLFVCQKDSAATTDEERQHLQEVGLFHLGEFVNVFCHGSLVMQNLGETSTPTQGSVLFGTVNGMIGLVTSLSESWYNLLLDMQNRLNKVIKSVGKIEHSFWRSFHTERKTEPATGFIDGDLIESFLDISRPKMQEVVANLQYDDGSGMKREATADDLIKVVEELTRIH
# T3 sequence (Q9NYV4 whole entry): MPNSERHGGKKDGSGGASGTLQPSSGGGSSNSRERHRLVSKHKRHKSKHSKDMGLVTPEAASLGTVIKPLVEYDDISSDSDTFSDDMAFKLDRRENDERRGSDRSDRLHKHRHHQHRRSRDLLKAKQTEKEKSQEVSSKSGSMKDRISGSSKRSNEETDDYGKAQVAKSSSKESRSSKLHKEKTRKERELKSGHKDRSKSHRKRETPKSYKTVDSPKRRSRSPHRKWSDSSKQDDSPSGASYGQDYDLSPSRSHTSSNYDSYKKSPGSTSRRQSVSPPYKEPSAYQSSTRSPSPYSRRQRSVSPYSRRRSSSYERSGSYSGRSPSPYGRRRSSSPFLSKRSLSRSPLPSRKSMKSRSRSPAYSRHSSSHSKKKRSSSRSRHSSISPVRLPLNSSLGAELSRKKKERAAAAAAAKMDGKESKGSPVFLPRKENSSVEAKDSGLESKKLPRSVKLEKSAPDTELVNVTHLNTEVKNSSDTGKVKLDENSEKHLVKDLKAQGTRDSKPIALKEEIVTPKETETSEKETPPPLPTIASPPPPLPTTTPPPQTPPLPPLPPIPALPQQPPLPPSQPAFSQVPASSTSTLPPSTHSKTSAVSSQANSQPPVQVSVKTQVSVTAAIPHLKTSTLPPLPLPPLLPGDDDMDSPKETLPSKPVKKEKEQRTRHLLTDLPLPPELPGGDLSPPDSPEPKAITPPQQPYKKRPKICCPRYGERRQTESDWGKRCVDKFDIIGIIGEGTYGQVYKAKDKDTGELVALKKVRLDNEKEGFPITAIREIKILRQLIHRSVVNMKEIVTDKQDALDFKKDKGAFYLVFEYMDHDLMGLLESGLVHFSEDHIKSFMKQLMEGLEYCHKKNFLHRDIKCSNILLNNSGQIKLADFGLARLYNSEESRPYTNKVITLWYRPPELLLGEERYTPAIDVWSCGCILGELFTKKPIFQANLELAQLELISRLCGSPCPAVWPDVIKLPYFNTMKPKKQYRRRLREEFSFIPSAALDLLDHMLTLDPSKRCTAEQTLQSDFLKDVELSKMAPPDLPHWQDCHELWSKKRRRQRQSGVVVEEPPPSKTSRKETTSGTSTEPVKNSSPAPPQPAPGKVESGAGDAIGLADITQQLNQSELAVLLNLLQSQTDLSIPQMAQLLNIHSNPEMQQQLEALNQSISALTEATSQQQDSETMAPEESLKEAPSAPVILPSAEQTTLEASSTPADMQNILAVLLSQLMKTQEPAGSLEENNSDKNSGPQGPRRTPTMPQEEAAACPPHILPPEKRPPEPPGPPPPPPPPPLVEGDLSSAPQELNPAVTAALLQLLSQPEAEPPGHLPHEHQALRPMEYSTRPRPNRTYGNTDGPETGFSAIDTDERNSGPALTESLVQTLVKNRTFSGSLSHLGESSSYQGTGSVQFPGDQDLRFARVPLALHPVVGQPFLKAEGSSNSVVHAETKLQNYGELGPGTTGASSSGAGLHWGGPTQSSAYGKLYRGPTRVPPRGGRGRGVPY
# T3 sequence (O75909 whole entry partner): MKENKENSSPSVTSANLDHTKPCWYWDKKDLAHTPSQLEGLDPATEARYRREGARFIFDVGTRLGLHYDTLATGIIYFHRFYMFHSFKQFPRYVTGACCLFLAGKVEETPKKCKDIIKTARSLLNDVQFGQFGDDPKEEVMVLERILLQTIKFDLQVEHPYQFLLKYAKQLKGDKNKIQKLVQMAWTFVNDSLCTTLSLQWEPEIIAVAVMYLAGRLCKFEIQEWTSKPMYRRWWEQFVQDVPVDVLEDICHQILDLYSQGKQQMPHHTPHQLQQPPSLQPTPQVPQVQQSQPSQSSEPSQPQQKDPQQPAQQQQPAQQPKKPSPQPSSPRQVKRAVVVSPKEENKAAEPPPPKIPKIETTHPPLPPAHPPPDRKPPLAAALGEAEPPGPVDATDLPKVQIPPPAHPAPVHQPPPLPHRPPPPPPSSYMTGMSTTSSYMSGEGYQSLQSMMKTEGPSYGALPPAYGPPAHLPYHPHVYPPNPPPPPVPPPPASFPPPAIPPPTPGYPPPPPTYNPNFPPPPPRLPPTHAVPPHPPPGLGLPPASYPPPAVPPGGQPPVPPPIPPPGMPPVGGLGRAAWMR
# T3 sequence (Q16531 2-1140 limits assumed): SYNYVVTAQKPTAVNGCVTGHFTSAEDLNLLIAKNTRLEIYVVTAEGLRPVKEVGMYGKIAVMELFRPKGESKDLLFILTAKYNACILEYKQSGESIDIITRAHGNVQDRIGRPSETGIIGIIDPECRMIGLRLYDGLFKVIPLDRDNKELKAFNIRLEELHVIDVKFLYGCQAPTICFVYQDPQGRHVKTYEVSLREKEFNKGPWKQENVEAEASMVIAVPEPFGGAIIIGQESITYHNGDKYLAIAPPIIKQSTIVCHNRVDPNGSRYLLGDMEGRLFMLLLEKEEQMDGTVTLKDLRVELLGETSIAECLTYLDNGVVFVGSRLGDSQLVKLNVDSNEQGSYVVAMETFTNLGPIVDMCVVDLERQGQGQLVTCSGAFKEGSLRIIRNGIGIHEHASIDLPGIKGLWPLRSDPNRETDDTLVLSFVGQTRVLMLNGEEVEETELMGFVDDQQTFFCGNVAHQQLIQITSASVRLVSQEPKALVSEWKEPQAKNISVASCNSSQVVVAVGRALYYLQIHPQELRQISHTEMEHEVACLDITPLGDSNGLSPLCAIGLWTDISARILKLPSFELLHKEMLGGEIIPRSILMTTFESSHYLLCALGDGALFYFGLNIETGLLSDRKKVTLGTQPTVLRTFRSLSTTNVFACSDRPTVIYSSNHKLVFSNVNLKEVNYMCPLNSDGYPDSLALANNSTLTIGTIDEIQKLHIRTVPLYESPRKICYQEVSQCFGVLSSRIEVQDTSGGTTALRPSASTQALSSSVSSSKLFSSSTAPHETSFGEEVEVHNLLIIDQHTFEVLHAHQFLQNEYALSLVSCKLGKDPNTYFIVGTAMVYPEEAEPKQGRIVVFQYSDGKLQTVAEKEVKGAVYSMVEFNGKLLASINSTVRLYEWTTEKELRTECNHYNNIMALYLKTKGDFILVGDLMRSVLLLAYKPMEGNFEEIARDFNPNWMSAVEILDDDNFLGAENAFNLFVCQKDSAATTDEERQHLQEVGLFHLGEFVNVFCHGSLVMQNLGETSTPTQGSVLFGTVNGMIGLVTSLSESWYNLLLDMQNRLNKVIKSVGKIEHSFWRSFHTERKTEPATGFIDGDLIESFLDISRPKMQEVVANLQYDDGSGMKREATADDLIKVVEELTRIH
compound,measurement,setting,value
C[C@H](C(=O)Nc1nc2ccccc2[nH]1)N1Cc2ccccc2C1=O [compound 919278],"Lanthascreen signal, sheet CDK2","CDK2–cyclin A; Compound 0.038147 nM, experiment r13-r23",0.01269 and 0.01352
same,"Lanthascreen signal, sheet CDK2","CDK2–cyclin A; Compound 0.038147 nM, experiment r48-r58",0.008606 and 0.009047
same,"Lanthascreen signal, sheet CDK2","CDK2–cyclin A; Compound 0.038147 nM, experiment r60-r70",0.02095 and 0.02064 and 0.01986
same,"Lanthascreen signal, sheet CDK2","CDK2–cyclin A; Compound 0.152588 nM, experiment r13-r23",0.01305 and 0.01362
same,"Lanthascreen signal, sheet CDK2","CDK2–cyclin A; Compound 0.152588 nM, experiment r48-r58",0.00965 and 0.01047
same,"Lanthascreen signal, sheet CDK2","CDK2–cyclin A; Compound 0.152588 nM, experiment r60-r70",0.02036 and 0.02142 and 0.02063
same,"Lanthascreen signal, sheet CDK2","CDK2–cyclin A; Compound 0.610352 nM, experiment r13-r23",0.01272 and 0.01276
same,"Lanthascreen signal, sheet CDK2","CDK2–cyclin A; Compound 0.610352 nM, experiment r48-r58",0.009379 and 0.009611
same,"Lanthascreen signal, sheet CDK2","CDK2–cyclin A; Compound 0.610352 nM, experiment r60-r70",0.02437 and 0.01852 and 0.0217
same,"Lanthascreen signal, sheet CDK2","CDK2–cyclin A; Compound 9.76563 nM, experiment r13-r23",0.0128 and 0.01342
same,"Lanthascreen signal, sheet CDK2","CDK2–cyclin A; Compound 9.76563 nM, experiment r48-r58",0.0095 and 0.01028
same,"Lanthascreen signal, sheet CDK2","CDK2–cyclin A; Compound 9.76563 nM, experiment r60-r70",0.02195 and 0.02182 and 0.02183
same,"Lanthascreen signal, sheet CDK2","CDK2–cyclin A; Compound 39.0625 nM, experiment r13-r23",0.01226 and 0.01223
same,"Lanthascreen signal, sheet CDK2","CDK2–cyclin A; Compound 39.0625 nM, experiment r48-r58",0.009849 and 0.009843
same,"Lanthascreen signal, sheet CDK2","CDK2–cyclin A; Compound 39.0625 nM, experiment r60-r70",0.02238 and 0.0202 and 0.02147
same,"Lanthascreen signal, sheet CDK2","CDK2–cyclin A; Compound 156.25 nM, experiment r13-r23",0.01136 and 0.01335
same,"Lanthascreen signal, sheet CDK2","CDK2–cyclin A; Compound 156.25 nM, experiment r48-r58",0.009932 and 0.01021
same,"Lanthascreen signal, sheet CDK2","CDK2–cyclin A; Compound 156.25 nM, experiment r60-r70",0.02199 and 0.02222 and 0.02099
same,"Lanthascreen signal, sheet CDK2","CDK2–cyclin A; Compound 625 nM, experiment r13-r23",0.01232 and 0.01317
same,"Lanthascreen signal, sheet CDK2","CDK2–cyclin A; Compound 625 nM, experiment r48-r58",0.009318 and 0.009813
same,"Lanthascreen signal, sheet CDK2","CDK2–cyclin A; Compound 625 nM, experiment r60-r70",0.02407 and 0.01928 and 0.02248
same,"Lanthascreen signal, sheet CDK2","CDK2–cyclin A; Compound 2500 nM, experiment r13-r23",0.0114 and 0.013
same,"Lanthascreen signal, sheet CDK2","CDK2–cyclin A; Compound 2500 nM, experiment r48-r58",0.009215 and 0.009737
same,"Lanthascreen signal, sheet CDK2","CDK2–cyclin A; Compound 2500 nM, experiment r60-r70",0.02278 and 0.02094 and 0.0202
same,"Lanthascreen signal, sheet CDK2","CDK2–cyclin A; Compound 10000 nM, experiment r13-r23",0.01075 and 0.01117
same,"Lanthascreen signal, sheet CDK2","CDK2–cyclin A; Compound 10000 nM, experiment r48-r58",0.008396 and 0.009419
same,"Lanthascreen signal, sheet CDK2","CDK2–cyclin A; Compound 10000 nM, experiment r60-r70",0.02054 and 0.0167 and 0.01885
same,IC50,"CDK2–cyclin A; Lanthascreen, average, Extended Data Fig. 8, read-out: CDK2 IC50",> 10000 nM
same,IC50,"CDK2–cyclin A; Supplementary Table 2, read-out: Lanthascreen IC50 [nM] CDK2",> 10000 nM
same,TR-FRET signal,CDK12–cyclin K and DDB1; compound concentration 0.468 nM,0.3356 and 0.3148
same,TR-FRET signal,CDK12–cyclin K and DDB1; compound concentration 2.16 nM,0.4152 and 0.4184
same,TR-FRET signal,CDK12–cyclin K and DDB1; compound concentration 3.6 nM,0.5887 and 0.6016
same,TR-FRET signal,CDK12–cyclin K and DDB1; compound concentration 7.92001 nM,0.8771 and 0.9002
same,TR-FRET signal,CDK12–cyclin K and DDB1; compound concentration 15.84 nM,1.301 and 1.376
same,TR-FRET signal,CDK12–cyclin K and DDB1; compound concentration 30.96 nM,2 and 2.052
same,TR-FRET signal,CDK12–cyclin K and DDB1; compound concentration 62.6401 nM,2.747 and 2.77
same,TR-FRET signal,CDK12–cyclin K and DDB1; compound concentration 125.28 nM,3.33 and 3.298
same,TR-FRET signal,CDK12–cyclin K and DDB1; compound concentration 244.8 nM,3.75 and 3.634
same,TR-FRET signal,CDK12–cyclin K and DDB1; compound concentration 993.601 nM,4.177 and 4.02
same,TR-FRET signal,CDK12–cyclin K and DDB1; compound concentration 2001.6 nM,4.179 and 4.0366
same,EC50,"CDK12–cyclin K and DDB1; in vitro complex formation, 50 nM CDK12–cyclin K, 100 nM DDB1, text and figures, read-out: TR-FRET EC50",0.038 ± 0.001 µM
same,EC50,"CDK12–cyclin K and DDB1; sheet MOESM7, read-out: log TR-FRET EC50 (converted)",0.0378 µM
same,EC50,"CDK12–cyclin K and DDB1; source data sheet correlations, read-out: TR-FRET EC50",0.0378 µM
same,CDK12 peptide count,CDK12; [1],562.617 and 625.634
same,CDK12 peptide count (DMSO-normalised),CDK12; [2],0.6251 and 0.6462
same,CDK13 peptide count,CDK13; [1],457.834 and 405.628
same,CDK13 peptide count (DMSO-normalised),CDK13; [2],0.6811 and 0.6233
